According to ChEMBL document CHEMBL5154690, “Discovery of a tricyclic farnesoid X receptor agonist HEC96719, a clinical candidate for treatment of non-alcoholic steatohepatitis” (Eur J Med Chem, 2022):
The source made the active and inactive calls. No cut-off for these calls is given here.

Assays:
[1] = target: T1, Bile acid receptor (Homo sapiens, UniProt Q96RI1); experiment: Agonist activity at human FXR expressed in HEK293T cells by luciferase reporter assay; type: cell-based
T1 sequence (Q96RI1 whole entry): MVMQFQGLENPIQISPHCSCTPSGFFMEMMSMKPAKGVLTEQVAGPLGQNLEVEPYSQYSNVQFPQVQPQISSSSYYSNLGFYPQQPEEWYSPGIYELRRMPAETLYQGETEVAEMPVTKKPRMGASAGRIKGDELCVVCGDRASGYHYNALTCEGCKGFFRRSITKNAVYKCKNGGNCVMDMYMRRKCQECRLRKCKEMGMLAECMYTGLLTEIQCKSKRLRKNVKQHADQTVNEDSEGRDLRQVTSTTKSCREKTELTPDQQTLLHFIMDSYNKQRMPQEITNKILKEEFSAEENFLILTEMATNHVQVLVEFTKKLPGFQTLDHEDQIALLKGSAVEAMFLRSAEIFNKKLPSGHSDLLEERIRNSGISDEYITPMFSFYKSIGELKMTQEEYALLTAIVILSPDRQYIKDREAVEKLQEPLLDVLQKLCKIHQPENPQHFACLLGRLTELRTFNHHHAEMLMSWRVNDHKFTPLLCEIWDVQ

[2] = Volume of distribution at steady state in male Sprague-Dawley rat at 1 mg/kg, iv measured by LC-MS/MS analysis; type: ADME, organism-based; conditions: in vivo, read-out: Vdss
[3] = target: T2, Nuclear receptor subfamily 1 group I member 2 (Homo sapiens, UniProt O75469); experiment: Agonist activity at PXR (unknown origin)
T2 sequence (O75469 whole entry): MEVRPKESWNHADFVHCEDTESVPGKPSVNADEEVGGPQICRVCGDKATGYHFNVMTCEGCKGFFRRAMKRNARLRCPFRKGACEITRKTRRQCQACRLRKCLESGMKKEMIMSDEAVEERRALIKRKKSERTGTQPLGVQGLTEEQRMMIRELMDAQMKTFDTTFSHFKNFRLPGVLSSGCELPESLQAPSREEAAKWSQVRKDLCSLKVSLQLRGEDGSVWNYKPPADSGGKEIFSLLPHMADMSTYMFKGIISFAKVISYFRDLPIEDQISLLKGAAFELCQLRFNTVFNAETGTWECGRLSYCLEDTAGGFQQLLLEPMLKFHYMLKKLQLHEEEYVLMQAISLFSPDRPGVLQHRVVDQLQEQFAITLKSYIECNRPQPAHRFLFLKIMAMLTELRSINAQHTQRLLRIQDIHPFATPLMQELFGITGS

[4] = test system: Mus musculus; experiment: Anti-NASH activity in western style diet-induced nonalcoholic steatohepatitis model of male C57BL/6 mouse assessed as reduction in serum ALT level at 1 mg/kg, po administered once daily from week 32 to 44; type: functional, organism-based
[5] = test system: Mus musculus; experiment: Antifibrotic activity in C57BL/6 mouse model of CCI4-induced liver fibrosis assessed as decrease in serum ALT level at 0.1 to 1 mg/kg, po administered once daily for 4 weeks; type: functional, organism-based; conditions: dose 0.1-1 mg/kg
[6] = test system: Mus musculus; experiment: Antifibrotic activity in C57BL/6 mouse model of CCI4-induced liver fibrosis assessed as reduction in fibrosis area at 0.1 to 1 mg/kg, po administered once daily for 4 weeks; type: functional, organism-based; conditions: dose 0.1-1 mg/kg
[7] = test system: Mus musculus; experiment: Antifibrotic activity in C57BL/6 mouse model of CCI4-induced liver fibrosis assessed as reduction in fibrosis area at 1 mg/kg, po administered once daily for 4 weeks; type: functional, organism-based
[8] = Oral bioavailability in male C57BL/6 mouse at 5 mg/kg measured by LC-MS/MS analysis; type: ADME, organism-based; conditions: in vivo
[9] = Half-life in male Beagle dog at 1 mg/kg, iv measured by LC-MS/MS analysis; type: ADME, organism-based, Canis lupus familiaris; conditions: in vivo
[10] = Drug recovery in stomach of male Sprague-Dawley rat at 4.5 mg/kg, po administered as C14-lableled compound and assessed as radioactivity and measured at 0.25 hrs; type: ADME, organism-based; conditions: in vivo
[11] = Drug recovery in heart of male Sprague-Dawley rat at 4.5 mg/kg, po administered as C14-lableled compound and assessed as radioactivity and measured at 1 hr; type: ADME, organism-based; conditions: in vivo
[12] = Drug recovery in pancreas of male Sprague-Dawley rat at 4.5 mg/kg, po administered as C14-lableled compound and assessed as radioactivity and measured at 1 hr; type: ADME, organism-based; conditions: in vivo
[13] = Drug recovery in ileum of male Sprague-Dawley rat at 4.5 mg/kg, po administered as C14-lableled compound and assessed as radioactivity and measured at 1 hr; type: ADME, organism-based; conditions: in vivo
[14] = Drug recovery in skin of male Sprague-Dawley rat at 4.5 mg/kg, po administered as C14-lableled compound and assessed as radioactivity and measured at 1 hr; type: ADME, organism-based, Skin of body; conditions: in vivo
[15] = Drug recovery in plasma of male Sprague-Dawley rat at 4.5 mg/kg, po administered as C14-lableled compound and assessed as radioactivity and measured at 1 hr; type: ADME, organism-based; conditions: in vivo
[16] = Drug recovery in heart of male Sprague-Dawley rat at 4.5 mg/kg, po administered as C14-lableled compound and assessed as radioactivity and measured at 6 hrs; type: ADME, organism-based; conditions: in vivo, BLD = below limit of detection
[17] = Drug recovery in spleen of male Sprague-Dawley rat at 4.5 mg/kg, po administered as C14-lableled compound and assessed as radioactivity and measured at 6 hrs; type: ADME, organism-based; conditions: in vivo, BLD = below limit of detection
[18] = Drug recovery in pancreas of male Sprague-Dawley rat at 4.5 mg/kg, po administered as C14-lableled compound and assessed as radioactivity and measured at 6 hrs; type: ADME, organism-based; conditions: in vivo, BLD = below limit of detection
[19] = Drug recovery in lung of male Sprague-Dawley rat at 4.5 mg/kg, po administered as C14-lableled compound and assessed as radioactivity and measured at 6 hrs; type: ADME, organism-based; conditions: in vivo
[20] = Drug recovery in stomach of male Sprague-Dawley rat at 4.5 mg/kg, po administered as C14-lableled compound and assessed as radioactivity and measured at 6 hrs; type: ADME, organism-based; conditions: in vivo
[21] = Drug recovery in skin of male Sprague-Dawley rat at 4.5 mg/kg, po administered as C14-lableled compound and assessed as radioactivity and measured at 6 hrs; type: ADME, organism-based, Skin of body; conditions: in vivo, BLD = below limit of detection
[22] = Drug recovery in plasma of male Sprague-Dawley rat at 4.5 mg/kg, po administered as C14-lableled compound and assessed as radioactivity and measured at 6 hrs; type: ADME, organism-based; conditions: in vivo
[23] = Drug recovery in heart of male Sprague-Dawley rat at 4.5 mg/kg, po administered as C14-lableled compound and assessed as radioactivity and measured at 24 hrs; type: ADME, organism-based; conditions: in vivo, BLD = below limit of detection
[24] = Drug recovery in spleen of male Sprague-Dawley rat at 4.5 mg/kg, po administered as C14-lableled compound and assessed as radioactivity and measured at 24 hrs; type: ADME, organism-based; conditions: in vivo, BLD = below limit of detection
[25] = Drug recovery in kidney of male Sprague-Dawley rat at 4.5 mg/kg, po administered as C14-lableled compound and assessed as radioactivity and measured at 24 hrs; type: ADME, organism-based; conditions: in vivo
[26] = Drug recovery in liver of male Sprague-Dawley rat at 4.5 mg/kg, po administered as C14-lableled compound and assessed as radioactivity and measured at 24 hrs; type: ADME, organism-based; conditions: in vivo
[27] = Drug recovery in stomach of male Sprague-Dawley rat at 4.5 mg/kg, po administered as C14-lableled compound and assessed as radioactivity and measured at 24 hrs; type: ADME, organism-based; conditions: in vivo
[28] = Mutagenecity in Salmonella typhimurium TA97A measured by Ames test; type: toxicity; conditions: salmonella enterica subsp. enterica serovar typhimurium

Q: For O=C(O)c1ccc2c(c1)Oc1ccc(OCc3c(-c4c(Cl)cccc4Cl)noc3C3CC3)nc1C1(CC1)C2, which EC50 [1] is on record?
A: The EC50 was 1.55 nM.

Q: And the Vd [2]?
A: The Vd was 0.65 L/kg.

Q: What about the EC50 [3] of the same molecule?
A: The EC50 was over 10000 nM.

Q: And the Activity [4]?
A: Its Activity is “Active”.

Q: What about the Activity [5] of the same molecule?
A: The Activity was “Active”.

Q: What about the Activity [6] of the same molecule?
A: Its Activity is “Active”.

Q: What about the Activity [7] of the same molecule?
A: Its Activity is “Active”.

Q: What about the bioavailability [8] of the same molecule?
A: Its bioavailability is 82.5%.

Q: And the half-life [9]?
A: Its half-life is 2.97 h.

Q: And the Drug recovery [10]?
A: Its Drug recovery is 3213 ngequiv/g.

Q: And the Drug recovery [11]?
A: The Drug recovery was 341 ngequiv/g.

Q: What about the Drug recovery [12] of the same molecule?
A: Its Drug recovery is 229 ngequiv/g.

Q: And the Drug recovery [13]?
A: Its Drug recovery is 1553 ngequiv/g.

Q: What about the Drug recovery [14] of the same molecule?
A: The Drug recovery was 117 ngequiv/g.

Q: What about the Drug recovery [15] of the same molecule?
A: Its Drug recovery is 305 ngequiv/g.

Q: What about the Drug recovery [16] of the same molecule?
A: The Drug recovery was “Bld”.

Q: What about the Drug recovery [17] of the same molecule?
A: The Drug recovery was “Bld”.

Q: And the Drug recovery [18]?
A: Its Drug recovery is “Bld”.

Q: And the Drug recovery [19]?
A: The Drug recovery was 63.4 ngequiv/g.

Q: What about the Drug recovery [20] of the same molecule?
A: The Drug recovery was 188 ngequiv/g.

Q: And the Drug recovery [21]?
A: Its Drug recovery is “Bld”.

Q: And the Drug recovery [22]?
A: The Drug recovery was 27 ngequiv/g.

Q: And the Drug recovery [23]?
A: The Drug recovery was “Bld”.

Q: What about the Drug recovery [24] of the same molecule?
A: The Drug recovery was “Bld”.

Q: What about the Drug recovery [25] of the same molecule?
A: The Drug recovery was 74.4 ngequiv/g.

Q: And the Drug recovery [26]?
A: Its Drug recovery is 304 ngequiv/g.

Q: And the Drug recovery [27]?
A: Its Drug recovery is 108 ngequiv/g.

Q: And the Activity [28]?
A: The Activity was “Non-Toxic”.
